From US12187742B2 (XRAD Therapeutics, Inc., priority 2018, dated 2025)
Structures can show the parent of a compound that is named as a salt.

Columns and labels:
ATM = ATM (Homo sapiens (Human), UniProt Q13315); assay: ATM in Cell Western Assay (pKAP1 in etoposide-treated MCF-7 cells); type: cell-based; settings: MCF-7 cells, etoposide 100 μM, 1 hr, pKAP1 readout
Method in brief: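 After paraformaldehyde fixation and Triton X-100 permeabilization, immunostained plates were read by infrared scanning (ODYSSEY CLx). Compound was given as 10 doses, 3-fold dilutions from a 1 μM final top concentration.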

DNA-PK = DNA-PK (Homo sapiens (Human), UniProt P78527); assay: DNA-PK Enzyme-Linked Immunosorbent Assay (phosphorylation of GST-p53 (1-101) peptide); type: biochemical; settings: ELISA, ATP 20 μM
Method in brief: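 Inhibition measured by 450 nm absorbance after HRP/TMB detection of phospho-Ser15 on immobilized GST-p53 (1-101). The kinase reaction used 0.1 μg/mL DNA-PK and 20 μM ATP, 1 h at 25 °C. Ten 3-fold compound dilutions, top final concentration 100 nM.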

ATM, sequence (Q13315 whole entry): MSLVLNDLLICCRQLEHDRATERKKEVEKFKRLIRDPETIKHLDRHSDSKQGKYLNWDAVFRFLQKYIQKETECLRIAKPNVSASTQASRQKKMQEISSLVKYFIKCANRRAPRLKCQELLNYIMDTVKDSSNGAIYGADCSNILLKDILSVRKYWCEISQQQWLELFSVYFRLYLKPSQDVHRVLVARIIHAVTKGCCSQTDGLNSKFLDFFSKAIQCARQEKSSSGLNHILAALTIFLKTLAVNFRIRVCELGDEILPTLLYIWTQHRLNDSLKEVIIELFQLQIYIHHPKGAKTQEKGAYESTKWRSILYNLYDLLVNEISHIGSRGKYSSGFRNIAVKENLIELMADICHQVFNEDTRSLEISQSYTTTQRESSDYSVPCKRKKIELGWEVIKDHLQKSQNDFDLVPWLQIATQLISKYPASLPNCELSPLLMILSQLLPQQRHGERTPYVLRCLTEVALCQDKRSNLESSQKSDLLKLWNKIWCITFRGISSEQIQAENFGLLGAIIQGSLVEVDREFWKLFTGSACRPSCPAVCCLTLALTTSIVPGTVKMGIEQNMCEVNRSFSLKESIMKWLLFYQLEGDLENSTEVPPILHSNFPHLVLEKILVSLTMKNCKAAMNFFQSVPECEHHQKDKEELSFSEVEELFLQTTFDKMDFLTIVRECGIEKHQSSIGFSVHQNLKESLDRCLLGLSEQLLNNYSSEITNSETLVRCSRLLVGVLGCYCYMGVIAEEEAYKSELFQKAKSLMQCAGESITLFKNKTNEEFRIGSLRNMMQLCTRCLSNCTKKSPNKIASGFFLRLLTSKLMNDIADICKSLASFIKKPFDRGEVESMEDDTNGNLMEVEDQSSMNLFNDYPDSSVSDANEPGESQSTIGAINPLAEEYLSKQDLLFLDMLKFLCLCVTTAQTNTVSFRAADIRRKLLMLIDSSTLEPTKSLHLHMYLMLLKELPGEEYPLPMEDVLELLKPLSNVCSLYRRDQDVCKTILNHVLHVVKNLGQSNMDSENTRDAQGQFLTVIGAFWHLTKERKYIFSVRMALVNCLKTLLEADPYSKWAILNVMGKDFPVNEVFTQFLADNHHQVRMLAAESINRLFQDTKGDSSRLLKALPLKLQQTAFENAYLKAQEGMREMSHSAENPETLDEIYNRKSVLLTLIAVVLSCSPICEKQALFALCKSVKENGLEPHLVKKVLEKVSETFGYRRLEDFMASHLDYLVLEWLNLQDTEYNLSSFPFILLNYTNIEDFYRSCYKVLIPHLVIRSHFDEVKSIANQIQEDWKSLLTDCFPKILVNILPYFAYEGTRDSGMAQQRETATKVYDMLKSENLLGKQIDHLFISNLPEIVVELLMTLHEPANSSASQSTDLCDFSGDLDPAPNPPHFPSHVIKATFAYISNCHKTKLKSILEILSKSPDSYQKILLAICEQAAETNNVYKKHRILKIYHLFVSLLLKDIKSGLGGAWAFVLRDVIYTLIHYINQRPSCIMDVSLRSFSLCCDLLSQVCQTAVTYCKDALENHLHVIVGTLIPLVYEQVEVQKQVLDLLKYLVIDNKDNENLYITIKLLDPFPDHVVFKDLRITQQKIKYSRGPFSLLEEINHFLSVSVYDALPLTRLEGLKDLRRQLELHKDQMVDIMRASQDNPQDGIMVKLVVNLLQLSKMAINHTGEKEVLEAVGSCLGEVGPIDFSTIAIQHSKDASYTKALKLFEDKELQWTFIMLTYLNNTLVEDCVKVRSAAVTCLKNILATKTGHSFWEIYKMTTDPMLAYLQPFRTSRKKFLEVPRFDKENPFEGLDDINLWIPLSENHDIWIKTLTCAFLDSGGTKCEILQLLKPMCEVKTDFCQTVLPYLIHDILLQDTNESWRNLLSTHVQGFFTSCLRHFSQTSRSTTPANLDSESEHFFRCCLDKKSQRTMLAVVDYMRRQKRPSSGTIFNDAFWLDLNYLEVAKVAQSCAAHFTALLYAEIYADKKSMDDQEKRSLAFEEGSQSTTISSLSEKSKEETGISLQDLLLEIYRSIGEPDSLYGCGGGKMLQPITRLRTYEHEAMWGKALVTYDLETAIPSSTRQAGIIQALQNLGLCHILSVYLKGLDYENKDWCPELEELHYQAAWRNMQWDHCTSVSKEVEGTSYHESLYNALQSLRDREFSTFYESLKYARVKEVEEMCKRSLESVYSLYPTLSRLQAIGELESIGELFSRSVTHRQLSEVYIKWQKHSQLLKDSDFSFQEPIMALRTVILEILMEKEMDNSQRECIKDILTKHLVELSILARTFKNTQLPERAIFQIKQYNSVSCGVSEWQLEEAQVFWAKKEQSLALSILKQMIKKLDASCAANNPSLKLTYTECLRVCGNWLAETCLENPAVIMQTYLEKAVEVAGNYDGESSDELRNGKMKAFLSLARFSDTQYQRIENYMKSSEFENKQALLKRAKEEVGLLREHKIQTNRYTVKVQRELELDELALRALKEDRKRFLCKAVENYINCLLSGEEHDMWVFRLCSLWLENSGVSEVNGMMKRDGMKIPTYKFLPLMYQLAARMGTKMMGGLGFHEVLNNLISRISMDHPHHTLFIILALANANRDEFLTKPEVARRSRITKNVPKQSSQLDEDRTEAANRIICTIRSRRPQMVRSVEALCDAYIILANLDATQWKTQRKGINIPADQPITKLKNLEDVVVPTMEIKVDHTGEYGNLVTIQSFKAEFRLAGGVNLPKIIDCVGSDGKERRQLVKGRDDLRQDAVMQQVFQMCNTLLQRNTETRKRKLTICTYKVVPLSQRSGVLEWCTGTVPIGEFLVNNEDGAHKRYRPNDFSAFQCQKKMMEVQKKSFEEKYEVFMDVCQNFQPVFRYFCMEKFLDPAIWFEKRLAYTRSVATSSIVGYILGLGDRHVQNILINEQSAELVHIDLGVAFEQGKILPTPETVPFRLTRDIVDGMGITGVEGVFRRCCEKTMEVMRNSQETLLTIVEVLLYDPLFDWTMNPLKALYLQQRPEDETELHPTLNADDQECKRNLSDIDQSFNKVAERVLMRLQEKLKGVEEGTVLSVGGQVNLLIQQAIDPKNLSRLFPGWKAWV

SMILES	IC50 (ATM) [nM]	IC50 (DNA-PK) [nM]
CN(C)CCCOc1ncc(-c2ccc3ncc4c(c3c2)C2(CCC2)C(=O)N4C)cc1NS(=O)(=O)c1ccc(F)c(C#N)c1 [Example 159, 3-Cyano-N-(2-(3-(dimethylamino)propoxy)-5-(3′-methyl-2′-oxo-2′,3′-dihydrospiro [cyclobutane-1,1′-pyrrolo[2,3-c]quinolin]-8′-yl)pyridin-3-yl)-4-fluorobenzene-sulfonamide hydrochloride]	0.5 to 1	0.5 to 1
CN(C)CCCOc1ncc(-c2ccc3ncc4c(c3c2)C2(CCC2)C(=O)N4C)cc1NS(=O)(=O)c1cscn1 [Example 160, N-(2-(3-(Dimethylamino)propoxy)-5-(3′-methyl-2′-oxo-2′,3′-dihydrospiro[cyclobutane-1,1′-pyrrolo[2,3-c]quinolin]-8′-yl)pyridin-3-yl)thiazole-4-sulfonamide hydrochloride]	1 to 100	< 0.5
CN(C)CCCOc1ncc(-c2ccc3ncc4c(c3c2)C2(CCC2)C(=O)N4C)cc1NS(=O)(=O)N1CCN(C)CC1 [Example 162, N-(2-(3-(Dimethylamino)propoxy)-5-(3′-methyl-2′-oxo-2′,3′-dihydrospiro[cyclobutane-1,1′-pyrrolo[2,3-c]quinolin]-8′-yl)pyridin-3-yl)-4-methylpiperazine-1-sulfonamide hydrochloride]	1 to 100	0.5 to 1
CCN(C)S(=O)(=O)Nc1cc(-c2ccc3ncc4c(c3c2)C2(CCC2)C(=O)N4C)cnc1OCCCN(C)C [Example 163, 8′-{6-[3-(Dimethylamino)propoxy]5-{[ethyl(methyl)sulfamoyl]amino}pyridin-3-yl}-3′-Methyl-2′,3′-dihydrospiro[cyclobutane-1,1′-pyrrolo[2,3-c]quinoline]-2′-one]	1 to 100	0.5 to 1
CN(C)CCCOc1ncc(-c2ccc3ncc4c(c3c2)C2(CCC2)C(=O)N4C)cc1NS(=O)(=O)N1CCC1 [Example 164, N-(2-(3-(Dimethylamino)propoxy)-5-(3′-methyl-2′-oxo-2′,3′-dihydrospiro[cyclobutane-1,1′-pyrrolo[2,3-c]quinolin]-8′-yl)pyridin-3-yl)azetidine-1-sulfonamide]	1 to 100	< 0.5
CC1CCN(S(=O)(=O)Nc2cc(-c3ccc4ncc5c(c4c3)C3(CCC3)C(=O)N5C)cnc2OCCCN(C)C)CC1 [Example 165, N-(2-(3-(Dimethylamino)propoxy)-5-(3′-methyl-2′-oxo-2′,3′-dihydrospiro[cyclobutane-1,1′-pyrrolo[2,3-c]quinolin]-8′-yl)pyridin-3-yl)-4-methylpiperidine-1-sulfonamide]	1 to 100	1 to 100
CN(C)CCCOc1ncc(-c2ccc3ncc4c(c3c2)C2(CCC2)C(=O)N4C)cc1NS(=O)(=O)c1cnn(C)c1 [Example 166, N-(2-(3-(Dimethylamino)propoxy)-5-(3′-methyl-2′-oxo-2′,3′-dihydrospiro [cyclobutane-1,1′-pyrrolo [2,3-c]quinolin]-8′-yl)pyridin-3-yl)-1-methyl-1H-pyrazole-4-sulfonamide hydrochloride]	1 to 100	1 to 100
Cc1ccc(S(=O)(=O)Nc2cc(-c3ccc4ncc5c(c4c3)C3(CCC3)C(=O)N5C)cnc2N2CCC(N3CCOCC3)CC2)cc1 [Example 167, 4-Methyl-N-(5-(3′-methyl-2′-oxo-2′,3′-dihydrospiro[cyclobutane-1,1′-pyrrolo[2,3-c]quinolin]-8′-yl)-2-(4-morpholinopiperidin-l-yl)pyridin-3-yl)benzenesulfonamide hydrochloride]	1 to 100	1 to 100
CN(C)CCCOc1ncc(-c2ccc3ncc4c(c3c2)C2(CCC2)C(=O)N4C)cc1NS(=O)(=O)c1ccccc1F [Example 168, N-(2-(3-(Dimethylamino)propoxy)-5-(3′-methyl-2′-oxo-2′,3′-dihydrospiro[cyclobutane-1,1′-pyrrolo[2,3-c]quinolin]-8′-yl)pyridin-3-yl)-2-fluorobenzenesulfonamide hydrochloride]	0.5 to 1	< 0.5
CN(C)CCCOc1ncc(-c2ccc3ncc4c(c3c2)C2(CCC2)C(=O)N4C)cc1NS(=O)(=O)c1cncs1 [Example 169, N-(2-(3-(Dimethylamino)propoxy)-5-(3′-methyl-2′-oxo-2′,3′-dihydrospiro [cyclobutane-1,1′-pyrrolo [2,3-c]quinolin]-8′-230 yl)pyridin-3-yl)thiazole-5-sulfonamide hydrochloride]	1 to 100	< 0.5
Cc1cc(S(=O)(=O)Nc2cc(-c3ccc4ncc5c(c4c3)C3(CCC3)C(=O)N5C)cnc2OCCCN(C)C)sn1 [Example 170, N-(2-(3-(Dimethylamino)propoxy)-5-(3′-methyl-2′-oxo-2′,3′-dihydrospiro [cyclobutane-1,1′-pyrrolo[2,3-c]quinolin]-8′-yl)pyridin-3-yl)-3-methylisothiazole-5-sulfonamide hydrochloride]	1 to 100	< 0.5
CN(C)CCCOc1ncc(-c2ccc3ncc4c(c3c2)C2(CCC2)C(=O)N4C)cc1NS(=O)(=O)c1cc(F)cc(Cl)c1 [Example 171, 3-Chloro-N-(2-(3-(dimethylamino)propoxy)-5-(3′-methyl-2′-oxo-2′,3′-dihydrospiro[cyclobutane-1,1′-pyrrolo[2,3-c]quinolin]-8′-yl)pyridin-3-yl)-5-fluorobenzenesulfonamide hydrochloride]	1 to 100	0.5 to 1
CC1CCCN1S(=O)(=O)Nc1cc(-c2ccc3ncc4c(c3c2)C2(CCC2)C(=O)N4C)cnc1OCCCN(C)C (centres unmarked) [Example 172, N-(2-(3-(Dimethylamino)propoxy)-5-(3′-methyl-2′-oxo-2′,3′-dihydrospiro [cyclobulane-1,1′-pyrrolo[2,3-c]quinolin]-8′-yl)pyridin-3-yl)-2-methylpyrrolidine-1-sulfonamide]	1 to 100	1 to 100
CN1C(=O)C2(CCC2)c2c1cnc1ccc(-c3cnc(N4CCC(N(C)C)CC4)c(NS(=O)(=O)C4CC4)c3)cc21 [Example 173, N-(2-(4-(Dimethylamino)piperidin-1-yl)-5-(3′-methyl-2′-oxo-2′,3′-dihydrospiro[cyclobutane-1,1′-pyrrolo[2,3-c]quinolin]-8′-yl)pyridin-3-yl)cyclopropanesulfonamide]	< 0.5	< 0.5
CC1CCCN(S(=O)(=O)Nc2cc(-c3ccc4ncc5c(c4c3)C3(CCC3)C(=O)N5C)cnc2OCCCN(C)C)C1 (centres unmarked) [Example 175, N-(2-(3-(Dimethylamino)propoxy)-5-(3′-methyl-2′-oxo-2′,3′-dihydrospiro [cyclobutane-1,1′-pyrrolo[2,3-c]quinolin]-8′-yl)pyridin-3-yl)-3-methylpiperidine-1-sulfonamide]	1 to 100	1 to 100
CN(C)CCCOc1ncc(-c2ccc3ncc4c(c3c2)C2(CCC2)C(=O)N4C)cc1NS(=O)(=O)N1CCNCC1 [Example 177, N-(2-(3-(Dimethylamino)propoxy)-5-(3′-methyl-2′-oxo-2′,3′-dihydrospiro [cyclobutane-1,1′-pyrrolo[2,3-c]quinolin]-8′-yl)pyridin-3-yl)piperazine-1-sulfonamide]	1 to 100	< 0.5
